Measured values: patent US20110218212A1, “PREDICTIVE MARKERS FOR EGFR INHIBITORS TREATMENT” (priority 2007, published 2011)
Read-outs that look alike come from different tables or passages of the source.

Legend:
advanced NSCLC = assay: open-label predictive marker identification Phase II study of Tarceva monotherapy; type: in vivo, human; settings: 264 enrolled patients, 150 mg/day oral
Experimental: Based on the experience from the BR.21 study, benefiting population was defined as either having objective response, or disease stabilization for ≧12 weeks. Clinical and microarray datasets were analyzed according to a pre-defined statistical plan.
The selection of this dose was based on pharmacokinetic parameters, as well as the safety and tolerability profile of this dose observed in Phase I, II and III trials in heavily pre-treated patients with advanced cancer. Drug levels seen in the plasma of patients with cancer receiving the 150 mg/day dose were consistently above the average plasma concentration of 500 ng/ml targeted for clinical efficacy.
This was an open-label, predictive marker identification Phase II study. The study was conducted in approximately 26 sites in about 12 countries. 264 patients with advanced NSCLC following failure of at least one prior chemotherapy regimen were enrolled over a 12 month period. […] Dose reductions were permitted based on tolerability to drug therapy. Clinical and laboratory parameters were assessed to evaluate disease control and toxicity. Treatment continued until disease progression, unacceptable toxicity or death.
The RECIST (Uni-dimensional Tumour Measurement) criteria were used to evaluate response. […]
A regular status check every 3 months was performed either by a patient's visit to the clinic or by telephone. All deaths were recorded. […]

NSCLC [1] = settings: single agent, patients for whom standard therapy for advanced disease has failed, versus placebo; cited from earlier work
[2] = patients with cancer, 150 mg/day dose; compared with average plasma concentration targeted for clinical efficacy; cited from earlier work
NSCLC [3] = settings: cited from earlier work
NSCLC [4] = settings: second line therapy of NSCLC; cited from earlier work

For `C#Cc1cccc(Nc2ncnc3cc(OCCOC)c(OCCOC)cc23)c1` [Erlotinib], the median overall survival (advanced NSCLC) is listed as 7.6 (CI 7-9) months, the median progression-free survival (advanced NSCLC) is listed as 11.3 (CI 8-12) weeks and the “survival of NSCLC patients” value (NSCLC [1]) is listed as “significantly prolongs and improves the survival”. For the same compound, the “drug levels in plasma” value [2] was > 500 ng/mL.

For `CC(=O)O[C@@]12CO[C@@H]1C[C@H](O)[C@@]1(C)C(=O)[C@H](O)C3=C(C)[C@@H](OC(=O)[C@H](O)[C@@H](NC(=O)OC(C)(C)C)c4ccccc4)C[C@@](O)([C@@H](OC(=O)c4ccccc4)[C@H]21)C3(C)C` [docetaxel], the survival (NSCLC [3]; second line after cisplatin-based first-line regimens failed, all ages, ECOG performance status 0, 1 or 2) is listed as “improved survival” and the survival (NSCLC [3]; third-line treatment or beyond) is listed as “no prolongation of survival”.

In the case of `Nc1nc2[nH]cc(CCc3ccc(C(=O)N[C@@H](CCC(=O)O)C(=O)O)cc3)c2c(=O)[nH]1` [pemetrexed], the “efficacy compared with docetaxel” value (NSCLC [4]) is listed as “clinically equivalent efficacy” and the “side effects compared with docetaxel” value (NSCLC [4]) is listed as “significantly fewer side effects”.
